Reference: patent US20250340591A1, “COMPOSITION FOR PREVENTING OR TREATING INFLAMMATORY BOWEL DISEASE CONTAINING NOVEL COMPOUND” (ANYGEN CO., LTD., priority 2021, published 2025)

How the values were obtained:
[1] = tested on: ulcerative colitis-induced wild type mice; experiment: DSS-induced ulcerative colitis in wild type littermate mice; format: in vivo
Method: In order to confirm the effect of HKFY-34 in an inflammatory bowel disease model using GPR39 as a target substance, a disease model of ulcerative colitis was prepared using GPR39 deficient mice (GPR39 knock out (KO), Gpr39^−/−). At this time, wild type mice born from a litter were set as a control group for each treated group of GPR39 deficient mice.
Specifically, an animal model of ulcerative colitis was prepared by feeding GPR39 deficient mice (Lexicon pharmaceuticals) and wild type mice with water containing 3% DSS in the same manner as in Experimental Example 7. GPR39 KO mice fed with only DSS (vehicle+3% DSS) were set as a negative control group, and GPR39 KO mice administered with HKFY-34 (10 mg/kg) (HKFY-34 10 mg/kg+3% DSS) were set as a test group. Intraperitoneal administration was performed once a day for 5 days.

HT-29 cells = experiment: cell proliferation of HT-29 intestinal epithelial cells (Cellvia kit, BrdU kit); format: cell-based; conditions: different concentrations, 24, 48 and 72 hours, FIG. 75
Method: It is known from studies using GPR39 deficient mice that GPR39 is involved in the growth and differentiation of intestinal tissue cells (Phil. Trans. R. Soc. B., 2016, 371:20150420). Therefore, in order to confirm the effect of HKFY-34 on the growth of intestinal tissue cells, the degree of cell proliferation by HKFY-34 was measured using HT-29 cells (Korea Cell Line Bank), which are intestinal epithelial cells.
Specifically, HT-29 cells were cultured in a 96 well plate and then treated with HKFY-34 at different concentrations for 24, 48, and 72 hours. The cell proliferation of the cultured cells was measured using a Cellvia kit (AB frontier) and a BrdU cell proliferation kit (abcam).

CCCCCCCC(=O)NCCCC[C@H](NC(=O)[C@@H](N)Cc1cn(C(c2ccccc2)c2ccccc2)cn1)C(=O)N[C@H](Cc1ccc(C)cc1)C(=O)N[C@@H](Cc1ccc(O)cc1)C(=O)O [HKFY-34, ((R)-2-((S)-2-((S)-2-amino-3-(1-benzhydryl-1H-imidazol-4-yl)propanamido)-6-octanamidohexanamido)-3-(p-tolyl)propanoyl)-L-tyrosine]
decrease in colon length ([1]; 10 mg/kg intraperitoneal for 5 days, FIG. 92): inhibited | damage due to inflammation of colon tissue (H&E staining) ([1]; 10 mg/kg intraperitoneal for 5 days, FIG. 95): reduced | body weight loss ([1]; 10 mg/kg intraperitoneal once a day for 5 days, 3% DSS, FIG. 91): inhibited | proliferation of HT-29 cells (HT-29 cells): increased by HKFY-34 in a dose-dependent manner
